How the values were obtained:
EGFR kinase = target: T1, EGFR kinase (Homo sapiens, UniProt P00533); assay: EGFR radiometric kinase assay; format: biochemical; settings: given as bound; 100 μM ATP; read-out: Inhibition activity, IC50 EGFR
T1 construct: EGFR kinase domain alone, Millipore; purchased Millipore
In short: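 Recombinant EGFR kinase domain (25 ng) with poly(Glu-Tyr) substrate in pH 7.0 MOPS buffer with 10 mM MnCl2, 100 μM ATP plus [^33P]ATP. Reaction 30 min at 30 °C, stopped with phosphoric acid; filter-bound radioactivity counted by scintillation.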

C-Raf kinase = target: T2, C-Raf kinase (Homo sapiens, UniProt P04049); assay: C-Raf kinase assay ([33P] incorporation into MEK1(K97R)); format: biochemical; settings: class symbols; 8 μM ATP; read-out: IC50 against C-Raf kinase
T2 construct: purchased Upstate Biotechnology
In short: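 Recombinant C-Raf (2 ng) phosphorylated MEK1(K97R) (500 ng) with 8 μM ATP plus [33P]ATP in Tris pH 7.5 buffer for 30 min at 30 °C. Reactions were stopped with phosphoric acid, filtered and counted by scintillation. IC50 values came from 3-fold serial dilutions run in duplicate.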

[1] = system: A375 melanoma cells and COLO205 colon cancer cells; assay: Cell proliferation assay (CellTiter-96); format: cell-based; settings: Homo sapiens; A375 or COLO205, 72 hours treatment; read-out: Cytotoxicity IC50 for A375 or COLO205
In short: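 B-Raf(V600E) mutant A375 and COLO205 cells in DMEM with 10% FCS, plated 24 h, then given varying compound concentrations for 72 h at 37 °C. Viability by CellTiter-96 Aqueous One reagent (4 h), absorbance at 490 nm.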

VEGFR2 kinase = target: T3, VEGFR2 kinase (Homo sapiens, UniProt P35968); assay: VEGFR2 radiometric kinase assay; format: biochemical; settings: given as bound; 100 μM ATP; read-out: Inhibition activity, IC50 VEGFR2
T3 construct: VEGFR2 kinase domain alone, Millipore; purchased Millipore
In short: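 Recombinant human VEGFR2 kinase domain (6.25 ng) phosphorylating poly(Glu-Tyr) 4:1 with 100 μM ATP plus [33P]ATP, in MOPS buffer pH 7.0, for 30 min at 30° C. Phosphoric-acid-stopped reactions were filter-captured and counted by scintillation for inhibition and IC50.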

B-Raf kinase = target: T4, B-Raf kinase (Homo sapiens, UniProt P15056); assay: B-Raf kinase assay ([33P] incorporation into MEK1(K97R)); format: biochemical; settings: class symbols; 8 μM ATP; read-out: IC50 against B-Raf kinase
T4 construct: purchased Upstate Biotechnology
In short: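 Recombinant B-Raf (5 ng) phosphorylating 500 ng MEK1(K97R) with 8 μM ATP plus [33P]ATP, pH 7.5 Tris buffer, 30 min at 30 °C. Radiolabel incorporation counted by filter-binding scintillation; IC50 from 3-fold serial dilutions run in duplicate.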

B-Raf(V600E) kinase = target: T5, B-Raf(V600E) kinase (Homo sapiens, UniProt P15056, V600E); assay: B-Raf(V600E) kinase assay ([33P] incorporation into MEK1(K97R)); format: biochemical; settings: class symbols; 8 μM ATP; read-out: IC50 against B-Raf(V600E) kinase
T5 construct: purchased Upstate Biotechnology
In short: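 Recombinant B-Raf(V600E) (5 ng) phosphorylating MEK1(K97R) (500 ng) with 8 μM ATP plus [33P]ATP in Tris/HCl pH 7.5 buffer, 30 min at 30 °C. Acid-stopped reactions were filter-captured and counted by scintillation; IC50 from 3-fold serial dilutions run in duplicate.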

T4 sequence (P15056 whole entry): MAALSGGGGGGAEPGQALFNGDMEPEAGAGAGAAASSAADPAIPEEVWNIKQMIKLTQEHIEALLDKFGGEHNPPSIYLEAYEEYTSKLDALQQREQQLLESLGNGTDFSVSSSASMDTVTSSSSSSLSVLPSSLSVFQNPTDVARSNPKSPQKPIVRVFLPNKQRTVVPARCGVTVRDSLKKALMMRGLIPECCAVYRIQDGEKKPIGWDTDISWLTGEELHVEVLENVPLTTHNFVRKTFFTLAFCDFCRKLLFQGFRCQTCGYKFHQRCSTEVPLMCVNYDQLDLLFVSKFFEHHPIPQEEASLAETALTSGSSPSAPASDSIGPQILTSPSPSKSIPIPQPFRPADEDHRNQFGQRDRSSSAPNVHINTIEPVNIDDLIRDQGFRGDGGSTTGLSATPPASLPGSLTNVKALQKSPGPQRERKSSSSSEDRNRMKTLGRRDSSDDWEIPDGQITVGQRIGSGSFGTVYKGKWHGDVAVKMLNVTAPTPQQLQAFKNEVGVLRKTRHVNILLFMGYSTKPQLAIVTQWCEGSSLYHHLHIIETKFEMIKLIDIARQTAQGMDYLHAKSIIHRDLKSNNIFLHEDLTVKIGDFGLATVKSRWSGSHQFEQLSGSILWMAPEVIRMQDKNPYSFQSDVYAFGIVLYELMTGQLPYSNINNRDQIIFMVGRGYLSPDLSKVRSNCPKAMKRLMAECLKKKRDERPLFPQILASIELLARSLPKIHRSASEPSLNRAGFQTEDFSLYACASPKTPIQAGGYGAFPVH
T3 sequence (P35968 834-1162 limits assumed): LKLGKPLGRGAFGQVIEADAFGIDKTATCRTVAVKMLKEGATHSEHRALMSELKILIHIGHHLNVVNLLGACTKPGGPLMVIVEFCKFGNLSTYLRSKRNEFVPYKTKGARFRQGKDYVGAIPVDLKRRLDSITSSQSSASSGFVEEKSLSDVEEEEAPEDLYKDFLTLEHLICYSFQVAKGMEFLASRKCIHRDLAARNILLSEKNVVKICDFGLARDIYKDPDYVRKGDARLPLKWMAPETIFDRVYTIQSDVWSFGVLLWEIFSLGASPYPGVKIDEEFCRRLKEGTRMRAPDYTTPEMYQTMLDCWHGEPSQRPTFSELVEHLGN
T5 sequence (P15056 whole entry V600E): as the sequence (P15056 whole entry) above, with V600E counted along it
T2 sequence (P04049 whole entry): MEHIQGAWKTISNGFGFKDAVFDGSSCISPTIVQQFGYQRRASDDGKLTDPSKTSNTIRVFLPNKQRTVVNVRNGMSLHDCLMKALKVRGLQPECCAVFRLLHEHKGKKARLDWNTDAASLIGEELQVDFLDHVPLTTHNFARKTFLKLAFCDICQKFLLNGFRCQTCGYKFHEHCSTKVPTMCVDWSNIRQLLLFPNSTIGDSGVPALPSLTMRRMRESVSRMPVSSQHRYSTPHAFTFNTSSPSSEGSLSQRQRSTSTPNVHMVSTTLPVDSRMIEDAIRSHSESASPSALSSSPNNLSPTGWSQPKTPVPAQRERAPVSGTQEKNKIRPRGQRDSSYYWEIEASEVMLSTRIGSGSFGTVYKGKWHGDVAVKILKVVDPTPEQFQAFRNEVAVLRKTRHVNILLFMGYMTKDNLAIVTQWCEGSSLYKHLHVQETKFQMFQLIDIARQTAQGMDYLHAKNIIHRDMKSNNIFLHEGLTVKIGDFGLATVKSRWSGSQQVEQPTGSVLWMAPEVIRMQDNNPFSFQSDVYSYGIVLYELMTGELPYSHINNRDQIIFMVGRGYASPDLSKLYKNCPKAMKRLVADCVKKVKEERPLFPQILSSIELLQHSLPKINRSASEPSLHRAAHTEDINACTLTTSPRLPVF
T1 sequence (P00533 712-979 limits assumed): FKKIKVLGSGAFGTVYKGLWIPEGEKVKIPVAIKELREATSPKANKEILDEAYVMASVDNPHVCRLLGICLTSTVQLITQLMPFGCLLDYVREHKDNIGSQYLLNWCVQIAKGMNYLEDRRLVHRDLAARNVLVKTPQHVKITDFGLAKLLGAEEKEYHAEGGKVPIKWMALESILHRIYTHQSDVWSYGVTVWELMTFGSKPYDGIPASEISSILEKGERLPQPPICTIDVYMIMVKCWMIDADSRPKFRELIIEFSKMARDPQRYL

IC50 (EGFR kinase): > 3 µM | IC50 (C-Raf kinase): < 0.3 µM | IC50 (VEGFR2 kinase): > 3 µM | IC50 (B-Raf kinase): < 0.3 µM | IC50 (B-Raf(V600E) kinase): < 0.3 µM
Compound: CCCS(=O)(=O)Nc1ccc(F)c(Nc2ncnc3ccc(-c4cnccc4F)cc23)c1F [compound 66, N-(2,4-difluoro-3-(6-(4-fluoropyridin-3-yl)quinazolin-4-ylamino)phenyl)propane-1-sulfonamide]
IC50 [1]: < 2 µM

— patent US9321762B2, “Quinazoline compounds, method for preparing the same and use thereof” (DEVELOPMENT CENTER FOR BIOTECHNOLOGY, priority 2013, dated 2016)
